Laboratory results taken from the supplement of paper PMC13380429.

Experiments:
Conditions in all cases: 72 h
Vero E6 [1] = experiment: drug sensitivity score (DSS) for viability; higher = more toxic; extreme values may be limits of the assay
Calu-3 [2] = experiment: as above
Caco-2 [3] = experiment: as above
HepG2 [4] = experiment: as above
U2OS [5] = experiment: as above
Vero E6 [6] = experiment: cell viability relative to DMSO; higher = less toxic
Calu-3 [7] = experiment: as above
Caco-2 [8] = experiment: as above
HepG2 [9] = experiment: as above
U2OS [10] = experiment: as above
Vero E6 [11] = experiment: relative viability EC50 (midpoint between 100% and the lowest measured viability); higher = less toxic
Calu-3 [12] = experiment: as above
Caco-2 [13] = experiment: as above
HepG2 [14] = experiment: as above
U2OS [15] = experiment: as above

| Structure (SMILES) | drug sensitivity score (Vero E6 [1]) | drug sensitivity score (Calu-3 [2]) | drug sensitivity score (Caco-2 [3]) | drug sensitivity score (HepG2 [4]) | drug sensitivity score (U2OS [5]) | cell viability (Vero E6 [6]; 1 nM) | cell viability (Vero E6 [6]; 10 nM) | cell viability (Vero E6 [6]; 100 nM) | cell viability (Vero E6 [6]; 1000 nM) | cell viability (Vero E6 [6]; 10000 nM) | cell viability (Calu-3 [7]; 1 nM) | cell viability (Calu-3 [7]; 10 nM) | cell viability (Calu-3 [7]; 100 nM) | cell viability (Calu-3 [7]; 1000 nM) | cell viability (Calu-3 [7]; 10000 nM) | cell viability (Caco-2 [8]; 1 nM) | cell viability (Caco-2 [8]; 10 nM) | cell viability (Caco-2 [8]; 100 nM) | cell viability (Caco-2 [8]; 1000 nM) | cell viability (Caco-2 [8]; 10000 nM) | cell viability (HepG2 [9]; 1 nM) | cell viability (HepG2 [9]; 10 nM) | cell viability (HepG2 [9]; 100 nM) | cell viability (HepG2 [9]; 1000 nM) | cell viability (HepG2 [9]; 10000 nM) | cell viability (U2OS [10]; 1 nM) | cell viability (U2OS [10]; 10 nM) | cell viability (U2OS [10]; 100 nM) | cell viability (U2OS [10]; 1000 nM) | cell viability (U2OS [10]; 10000 nM) | relative viability EC50 (Vero E6 [11]) | relative viability EC50 (Calu-3 [12]) | relative viability EC50 (Caco-2 [13]) | relative viability EC50 (HepG2 [14]) | relative viability EC50 (U2OS [15]) |
| --- | --- | --- | --- | --- | --- | --- | --- | --- | --- | --- | --- | --- | --- | --- | --- | --- | --- | --- | --- | --- | --- | --- | --- | --- | --- | --- | --- | --- | --- | --- | --- | --- | --- | --- | --- |
| CC(=O)C1=C(O)C=C2Oc3c(C(C)=O)c(O)c(C)c(O)c3C2(C)C1=O (stereo not drawn) [usniacin-(+)] | 0 | 0 | 0 | 0 | 0 | 101% | 95.4% | 100% | 98.9% | 101% | 107% | 99.4% | 95.2% | 113% | 96.4% | 104% | 101% | 91.1% | 95.6% | 108% | 111% | 97.1% | 102% | 110% | 94% | 98.9% | 75.3% | 95.8% | 83.5% | 95.5% | > 10 µM | > 10 µM | > 10 µM | > 10 µM | > 10 µM |
| COc1cc(C=O)ccc1O [vanillin] | 0 | 0 | 0 | 0 | 0 | 92% | 91.5% | 89.7% | 89% | 105% | 97.5% | 107% | 109% | 99.8% | 105% | 92.8% | 90% | 96% | 104% | 96.6% | 99.9% | 91.9% | 102% | 115% | 97.4% | 96.1% | 104% | 95.1% | 104% | 99.1% | > 10 µM | > 10 µM | > 10 µM | > 10 µM | > 10 µM |
| COc1ccc(CCO[C@@H]2CCCC[C@H]2N2CC[C@@H](O)C2)cc1OC [vernakalant] | 0 | 0 | 0 | 0 | 0 | 97.8% | 97.3% | 91.7% | 98.6% | 106% | 111% | 97.1% | 106% | 104% | 109% | 101% | 91.2% | 93.9% | 101% | 106% | 89.2% | 112% | 99.2% | 100% | 110% | 102% | 94.1% | 103% | 95.2% | 101% | > 10 µM | > 10 µM | > 10 µM | > 10 µM | > 10 µM |
| OCc1cc([C@@H](O)CNCCCCCCOCCOCc2c(Cl)cccc2Cl)ccc1O [vilanterol] | 0 | 0 | 0 | 0 | 0 | 95.3% | 99.7% | 89.2% | 98.9% | 107% | 99% | 100% | 89.8% | 102% | 97% | 94% | 93.5% | 96% | 96.2% | 94.3% | 97.8% | 96.5% | 89.5% | 104% | 109% | 96.8% | 96.1% | 101% | 100% | 94% | > 10 µM | > 10 µM | > 10 µM | > 10 µM | > 10 µM |
| CC1(CN2CCC(n3c(=O)[nH]c4ccccc43)CC2)OCc2ccccc2-n2cccc21 (stereo not given) [zaldaride] | 0 | 0 | 0 | 0.7 | 0 | 98.9% | 97.7% | 98.7% | 100% | 89.9% | 86.3% | 96.1% | 101% | 84.7% | 94.5% | 99.6% | 91.6% | 101% | 88.1% | 93.1% | 94.9% | 96.4% | 86.6% | 104% | 76% | 102% | 94.6% | 98% | 95.7% | 99.1% | > 10 µM | > 10 µM | > 10 µM | > 10 µM | > 10 µM |
| C[C@H](CSC(=O)c1ccccc1)C(=O)N1C[C@@H](Sc2ccccc2)C[C@H]1C(=O)O [zofenopril-calcium] | 0 | 0.2 | 0 | 0 | 0 | 114% | 99.9% | 103% | 101% | 106% | 92.9% | 90.7% | 105% | 96% | 88.3% | 86.1% | 94.3% | 106% | 96.6% | 99.6% | 101% | 108% | 94.7% | 102% | 95.3% | 98.4% | 102% | 99.6% | 95.1% | 101% | > 10 µM | > 10 µM | > 10 µM | > 10 µM | > 10 µM |
| Cc1nn(C)c2c1C(c1cccc(Cl)c1)=NCCN2 [zometapine] | 0 | 0 | 0 | 0 | 0 | 104% | 105% | 98% | 97.8% | 95.1% | 102% | 104% | 99.8% | 101% | 98.2% | 95.7% | 86.7% | 82.4% | 117% | 105% | 93.3% | 105% | 99.9% | 106% | 89% | 95.6% | 105% | 98.4% | 102% | 96.9% | > 10 µM | > 10 µM | > 10 µM | > 10 µM | > 10 µM |
